Data set [1] relates to E. coli strain ATCC25922. The class given is cell-based. Conditions: for MBC E. coli: ATCC25922; for MIC E. coli: ATCC25922, 18 h. On the procedure: (§1) In order to measure antimicrobial activity of the peptoids, Gram-positive S. aureus strain KCTC1621, or Gram-negative E. coli strain ATCC25922 was treated with the peptoids prepared in Preparation Example 1, and minimum inhibitory concentrations were measured. Peptoid NOS. 1 and 2 are already known peptoids and were used for the purpose of making a comparison with novel peptoids in terms of antimicrobial activity.
(§2) Specifically, S. aureus strain KCTC1621 or E. coli strain ATCC25922 was inoculated into Mueller Hinton Broth (MHB2) liquid medium on which cations were adjusted, cultured at a temperature of 37° C. for 18 hours, and then subcultured for 4 hours. Thereafter, the strains were diluted with MHB2 liquid medium containing 0.2% bovine serum albumin and 0.01% acetic acid so that each bacterial number was 2×10^5 colony-forming units (CFU) per 1 mL, and dispensed into 96-well microtiter plates at 100 μL each. A peptoid stock which is 40-fold more concentrated than a concentration to be tested was added to each well at 2.5 μL or lower so that the peptoid stock was 2-fold serially diluted using sterile water. Thereafter, the plates were incubated at a temperature of 37° C. for 18 hours.
(§3) Thereafter, absorbance was measured at a wavelength of 600 nm using a microplate reader (Bio-Rad). The lowest peptoid concentration that completely suppresses growth of microorganisms was measured by a minimum inhibitory concentration (MIC) and a minimum bactericidal concentration (MBC), and the measurement results are shown in Table 5 below. Each of the MIC values was calculated as an average value of numerical values obtained through three independent experiments.

The subject of data set [2] is S. aureus strain KCTC1621. The class given is cell-based. Particulars: for MBC S. aureus: KCTC1621; for MIC S. aureus: KCTC1621, 18 h. On the procedure: as §1, §2, §3
The test system of data set [3] is red blood cells. Nature of the data set: Hemolytic activity on red blood cells. The class given is cell-based, mouse. In a few lines:
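Washed mouse red blood cells (10% v/v in PBS, pH 7.4) incubated with peptoids for 1 h at 37 °C; released haemoglobin read at 540 nm. % hemolysis normalised to 0.1% Triton X-100 (100%) and PBS blank; HD10, HD50 derived, Hmax taken at 200 μM top concentration.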

Data set [4] relates to P. aeruginosa (198B MDR). As to the kind of experiment: MIC in multidrug-resistant bacteria panel, modified microdilution. It counts as cell-based. Particulars: overnight, 37° C. On the procedure:
(§4) Minimum inhibitory concentrations of the prepared peptoids for multidrug-resistant bacteria were measured using a modified microdilution method in Difco Mueller Hinton medium, and tests were done on a panel of bacterial pathogens which have resistance and tolerance against common antibiotics.
(§5) Briefly, a peptoid concentrate, which is 10-fold more concentrated than a final concentration, was serially diluted with a medium containing 0.2% bovine serum albumin and 0.01% acetic acid. 10 μL of the 10-fold concentrated peptoid concentrate and 90 μL of Muller Hinton medium were added to each well of a 96-well polypropylene microtitre plate. Bacteria were added to the plate so that a final concentration thereof was 2×10^5 CFU/mL, and then incubated overnight at a temperature of 37° C. The minimum inhibitory concentration was defined as a concentration at which no bacterial growth is observed.

For data set [5], the system named is P. aeruginosa (PA01). The data set is described as above. The class given is cell-based. Particulars: overnight, 37° C. On the procedure:
as §4, §5

Data set [6] relates to S. epidermidis (ET-024 MRSA). The data set is described as above. It counts as cell-based. Conditions: overnight, 37° C. On the procedure:
as §4, §5

A short description of data set [7]: Metabolic stability in human liver S9 fraction, HPLC. It counts as in vitro ADME. Particulars: human; for remaining at 24 h, 11.5 μM: s9, pH 7.4. On the procedure: In order to identify metabolic stability of the peptoids synthesized in Preparation Example 1, such peptoids were subjected to enzymatic reaction using S9 fraction which is a mixture of human liver tissue-extracted metabolic enzymes. Thereafter, for the reaction products, metabolites were quantitated using HPLC.
Specifically, Peptoid NOS. 1 and 4, and Pexiganan as a peptide control (40 μL each, 100 μM) were treated with […], 3.3 mM MgCl2, and 1.3 mM NADPH buffer (306 μL, pH=7.4), to prepare respective samples. The respective samples were treated with S9 fraction (2 μL, 0.1 mg/mL) and then incubated at a temperature of 37° C. When 0, 1, 4, and 24 hours had elapsed after treatment with the S9 fraction, 40 μL of each sample was taken out, and acetonitrile containing the same amount of 0.1% trifluoroacetic acid was used to stop activity of enzymes contained in the S9 fraction. Thereafter, proteins precipitated with acetonitrile were centrifuged at a condition of 1,000×g for 10 minutes at a temperature of 4° C. Then, supernatant was analyzed by HPLC to identify an amount of the remaining peptoid which had not been degraded by the enzymes in the S9 fraction.

For data set [8], the system named is E. coli. Nature of the data set: Selectivity analysis, HD10 divided by MIC for E. coli. Particulars: HD10 of Table 6 divided by MIC for E. coli ATCC25922. On the procedure: In order to identify changes in selectivity depending on alteration of degree of folding in helical structure of peptoids, selectivity of each peptoid was calculated using the resultant values measured in the Experimental Examples 1 and 2. The selectivity was obtained by dividing the HD10 value by the minimum inhibitory concentration for E. coli (Table 8).

Data set [9] relates to E. coli (63103 ESBL). Nature of the data set: MIC in multidrug-resistant bacteria panel, modified microdilution. It counts as cell-based. Conditions: overnight, 37° C. On the procedure:
as §4, §5

The subject of data set [10] is S. aureus (ATCC25923). The data set is described as above. Particulars: overnight, 37° C. It counts as cell-based. On the procedure: as §4, §5
Data set [11] relates to B. subtilis. It counts as cell-based. Conditions: 18 h. On the procedure:
In order to measure antimicrobial activity of the peptoids, Gram-positive B. subtilis or Gram-negative E. coli strain DH5α was treated with Peptoid NOS. 1, 18 to 23, and the peptide Pexiganan, and minimum inhibitory concentrations were measured. Peptoid NOS. 1 and 2, and the peptide Pexiganan are already known antimicrobial peptoids and peptides, and were used for the purpose of making a comparison with novel peptoids in terms of antimicrobial activity.
Specifically, B. subtilis or E. coli DHS a was inoculated into LB liquid medium, and cultured at a temperature of 37° C. for 18 hours. Thereafter, the bacteria were diluted with LB medium so that each bacterial number was 2×10^5 colony-forming units (CFU) per 1 mL, and dispensed into 96-well microtiter plates at 100 μL each. The peptoid, which is 2-fold serially diluted using sterile water, was added to each well at 100 μL each. The plates were incubated at a temperature of 37° C. for 18 hours.
Thereafter, absorbance was measured at a wavelength of 600 nm using a microplate reader (Bio-Rad). The lowest peptoid concentration that completely suppresses growth of microorganisms was measured by a minimum inhibitory concentration (MIC), and the measurement results are shown in Table 12 below. Each of the minimum inhibitory concentration values was calculated as an average value of numerical values obtained through three independent experiments.

In data set [12] the test system is MRCS cell line. As to the kind of experiment: in vitro. Particulars: concentration indicating 50% survival, 24 h, MTS; read-out: LC50 (the source's name). The class given is cell-based. On the procedure: In order to determine whether the peptoids were cytotoxic against human cell lines, […] cell line (Korean Cell Line Bank) which is a human lung cell line was cultured in a DMEM (Dulbecco's modified Eagle's medium) culture solution containing 10% (v/v) fetal bovine serum (FBS) at 5% CO2 and a temperature of 37° C. 100 μL of DMEM medium was dispensed into each well of a 96-well microtiter plate so that the number of cells was 1.3×10^4, and then incubated overnight at a temperature of 37° C. in a 5% CO2 incubator. In this case, a DMEM medium was used as a negative control. Thereafter, the peptoid which is 2-fold serially diluted using sterile water was added to each well, and then incubated for 24 hours.
After incubation, 20 μL of an MTS solution [3-(4,5-dimethylthiazol-2-yl)-5-(3-carboxymethoxyphenyl)-2-(4-sulfophenyl)-2H-tetrazolium, inner salt; MTS] was added thereto and incubated at a temperature of 37° C. for 4 hours. Thereafter, % survival was calculated by measuring absorbance at a wavelength of 490 nm using an ELISA reader. The % survival was calculated as a percentage obtained by dividing the absorbance value for a well-treated with the peptoid by the absorbance value for a well containing control cells which had not been treated with the peptoid.

Experimental findings from patent US10815275B2, “Antimicrobial peptoids with improved selectivity and use thereof” (priority 2018, dated 2020) are described below.

Values after ≈ are worked out from the molar mass of the structure shown. Non-standard residues stand in square brackets, D forms with d. Residues, ends and D or L forms follow the SMILES beside them. No end group written: not given here. Nspe = C[C@H](NCC(=O)O)c1ccccc1; Nphe = O=C(O)CNCc1ccccc1; Nlys = NCCCCNCC(=O)O

As for `C[C@@H](c1ccccc1)N(CC(=O)N(CCCCN)CC(=O)N(CC(=O)N(CC(=O)N(CCCCN)CC(=O)N(CC(=O)N(CC(=O)N(CCCCN)CC(=O)N(CC(=O)N(CC(N)=O)Cc1ccccc1)Cc1ccccc1)Cc1ccccc1)Cc1ccccc1)Cc1ccccc1)Cc1ccccc1)C(=O)CN(Cc1ccccc1)C(=O)CNCCCCN` [compound 4] (H-[Nlys][Nphe][Nspe][Nlys][Nphe][Nphe][Nlys][Nphe][Nphe][Nlys][Nphe][Nphe]-NH2), in data set [1], the “MBC E. coli” value worked out at 25 µM (≈ 43 µg/mL) and the “MIC E. coli” value came to 12.5 µM (≈ 21.5 µg/mL). In [2], the “MBC S. aureus” value came to 3.1 µM (≈ 5.34 µg/mL) and the “MIC S. aureus” value stood at 3.1 µM (≈ 5.34 µg/mL). In addition, in [3], the HD10 came out at 89.6 and the HD50 is above 200. In data set [4], the “minimum inhibitory concentration P. aeruginosa (198B MDR)” value turned out to be 6.3. The “minimum inhibitory concentration P. aeruginosa (PA01)” value in data set [5] is on record as 6.3. Besides, in data set [6], the “minimum inhibitory concentration S. epidermidis (ET-024 MRSA)” value is recorded as below 0.8 to 0.8. The “remaining amount after S9 fraction treatment” value in [7] (s9, 24 h) is at least 60%. Moreover, the fraction remaining at 24 h, 11.5 μM in data set [7] turned out to be 74%. Moreover, the “Selectivity [HD10/MIC (E. coli)]” value in data set [8] is 7.1.
Regarding `C[C@@H](c1ccccc1)N(CC(N)=O)C(=O)CN(Cc1ccccc1)C(=O)CN(CCCCN)C(=O)CN(Cc1ccccc1)C(=O)CN(Cc1ccccc1)C(=O)CN(CCCCN)C(=O)CN(Cc1ccccc1)C(=O)CN(Cc1ccccc1)C(=O)CN(CCCCN)C(=O)CN(C(=O)CN(C(=O)CNCCCCN)[C@@H](C)c1ccccc1)[C@@H](C)c1ccccc1` [compound 13], in data set [1], the “MBC E. coli” value stood at 25 µM (≈ 43.7 µg/mL) and the “MIC E. coli” value came to 25 µM (≈ 43.7 µg/mL). Also, in data set [2], the “MBC S. aureus” value was 6.3 µM (≈ 11 µg/mL) and the “MIC S. aureus” value amounted to 3.1 µM (≈ 5.42 µg/mL). In data set [3], this compound registered an HD10 of 81.7 and an HD50 above 200. In addition, in data set [9], the “minimum inhibitory concentration E. coli (63103 ESBL)” value was 6.3. For the same compound, in [4], the “minimum inhibitory concentration P. aeruginosa (198B MDR)” value is given as 6.3. Also, the “minimum inhibitory concentration P. aeruginosa (PA01)” value in [5] is 6.3. In addition, the “minimum inhibitory concentration S. aureus (ATCC25923)” value in data set [10] came out at 3.1. The “minimum inhibitory concentration S. epidermidis (ET-024 MRSA)” value in [6] is given as below 0.8 to 0.8. Also, the “Selectivity [HD10/MIC (E. coli)]” value in [8] amounted to 3.3.
Turning to `C[C@@H](c1ccccc1)N(CC(=O)N(CCCCN)CC(=O)N(CC(=O)N(CC(=O)N(CCCCN)CC(=O)N(CC(=O)N(CC(N)=O)Cc1ccccc1)Cc1ccccc1)[C@@H](C)c1ccccc1)[C@@H](C)c1ccccc1)C(=O)CN(Cc1ccccc1)C(=O)CN(CCCCN)C(=O)CN(Cc1ccccc1)C(=O)CN(Cc1ccccc1)C(=O)CNCCCCN` [compound 15] (H-[Nlys][Nphe][Nphe][Nlys][Nphe][Nspe][Nlys][Nspe][Nspe][Nlys][Nphe][Nphe]-NH2), in data set [1], the “MBC E. coli” value was determined as 25 µM (≈ 43.7 µg/mL) and the “MIC E. coli” value was 12.5 µM (≈ 21.9 µg/mL). In addition, in data set [2], the “MBC S. aureus” value worked out at 3.1 µM (≈ 5.42 µg/mL) and the “MIC S. aureus” value turned out to be 3.1 µM (≈ 5.42 µg/mL). Moreover, in data set [3], the HD10 is 26.8 and the HD50 is 155.8. Also, the “minimum inhibitory concentration E. coli (63103 ESBL)” value in data set [9] is on record as 6.3. Further, in [4], the “minimum inhibitory concentration P. aeruginosa (198B MDR)” value amounted to 6.3. Moreover, the “minimum inhibitory concentration S. aureus (ATCC25923)” value in data set [10] is reported as 3.1. In addition, the “minimum inhibitory concentration S. epidermidis (ET-024 MRSA)” value in [6] was below 0.8 to 0.8. In [8], the “Selectivity [HD10/MIC (E. coli)]” value is recorded as 2.1.
In data set [3], “GIGKFLKKAKKFGKAFVKILKK-NH2 [Pexiganan, reference compound]” came in with an HD10 of 113.4 and an HD50 above 200. Also, in data set [7], the fraction remaining at 24 h, 11.5 μM was below 1%. For the same compound, in data set [11], the “MIC B. subtilis” value came to 0.4 µM. Besides, the CC50 in data set [12] amounted to 21.2 µM.
